Assay results reported in patent US20250129054A1 (Terran Biosciences Inc., priority 2022, published 2025).

How the values were obtained:
[1] = tested on: rat elevated zero maze model of anxiety; assay: Rat elevated zero maze model of anxiety (% time on open areas, stretched attend postures); assay type: in vivo, Sprague-Dawley rats; conditions: for anxiogenic effect: across the doses tested, ip
Excerpt: The rat zero-maze model is a refined alternative to the plus-maze, the most widely used animal model of anxiety, and consists of an elevated annular platform, divided equally into four quadrants. Two opposite quadrants are enclosed by Perspex walls on both the inner and the outer edges of the platform, while the remaining two opposite quadrants are open being enclosed only by a Perspex “lip”. Animals will show a preference for the closed areas, and avoidance of the open sections is assumed to stem from a rodent's natural aversion to open, exposed spaces. The primary index of anxiety, which reflect changes in open arm preference, is the percentage of time spent on the open areas. A reduction in the amount of activity on the open areas is considered to reflect an increase in anxiety. Other, ethologically-based behaviours are also assessed as indices of anxiety. One of the most important is stretched attend postures (SAP) from closed to open quadrants. […] Shepherd, J K; et al., (1994) Behavioural and pharmacological validation of the elevated “zero-maze” as an animal model of anxiety. Psychopharmacol., 116:56-64.
Male Sprague-Dawley 200-250 g (Envigo UK) rats were used. Animals were group-housed (5 per cage; cage size: 40×40×20 cm) in a temperature-controlled environment (22±2° C.), under a 12 h light-dark cycle (lights on: 08:00 hours) for one week prior to testing. Food and water were freely available. Number of animals per group=5. Animals were moved into the experimental room 16-24 hours before testing.
The elevated 0-maze comprises a black Perspex annular platform (105 cm diameter, 10 cm width) elevated to 65 cm above ground level, divided equally into four quadrants. Two opposite quadrants are enclosed by clear red Perspex walls (27 cm high) on both the inner and outer edges of the platform, while the remaining two opposite quadrants are surrounded only by a Perspex “lip” (1 cm high) which serves as a tactile guide to animals on these open areas.
Subjects were weighed and tail marked before being injected. After a specified pre-treatment time, subjects were placed in a closed quadrant and a 5-min test period were recorded on videotape for subsequent analysis. The maze were cleaned with 5% methanol/water solution and dried thoroughly between test sessions. Behavioural measures comprise percentage time spent on the open areas (% TO) and frequency of stretched attend postures (SAP) from closed to open quadrants. Since the control groups were all treated identically with the same vehicle these were combined to increase power. The Chlordiazepoxide groups were also treated identically with the same dose so these were also combined to increase power. Animals are scored as being in the open area when all four paws were in an open quadrant and in the closed area only when all four paws have passed over the open-closed divide. All testing were carried out between 9.00 and 16.00 hours.
For each study, a 1-way ANOVA was conducted across vehicle, CDP, and drug treatment groups. Each group was compared to the vehicle group and a p-value for treatment determined by Fishers Least Significant Difference (LSD) test. This analysis was performed in GraphPad Prism (Version 9).
Intraperitoneal (IP): Racemic methylone HCl was formulated in Vehicle 1 (Saline) for injection to concentrations of 1, 3 and 6 mg/mL to provide doses of 5, 15 and 30 mg/kg when administered ip in 5 mL/kg dosing volumes.
Intraperitoneal (IP): S-methylone HCl was formulated in Vehicle 1 (Saline) for injection to concentrations of 0.5, 1, 1.5, 3 and 6 mg/mL to provide doses of 2.5, 5, 7.5, 15 and 30 mg/kg when administered ip in 5 mL/kg dosing volumes.
Intraperitoneal (IP): R-methylone HCl was formulated in Vehicle 1 (Saline) for injection to concentrations of 1, 3 and 6 mg/mL to provide doses of 5, 15 and 30 mg/kg when administered ip in 5 mL/kg dosing volumes. […]

[2] = tested on: post-traumatic stress disorder (PTSD); assay: Double-blind, randomized, placebo-controlled clinical trial of methylone-assisted psychotherapy in PTSD; assay type: in vivo, human; conditions: at Study Conclusion; for clinician-rated functional impairment score as measured by SDS / depression as measured by HAM-D: compared to placebo-treated controls; for change in CAPS-5 assessment: with psychotherapy, compared to the placebo group, PTSD participants
Procedure: A multicenter, randomized, double-blind, placebo-controlled trial is conducted to assess the efficacy and safety of methylone-assisted psychotherapy versus psychotherapy with placebo control in participants diagnosed with at least moderate post-traumatic stress disorder (PTSD).
This multicenter, randomized, double-blind, placebo-controlled trial is conducted at various sites in the United States with IRB approval from each study site. A flexible dose of methylone hydrochloride salt or placebo, followed by a supplemental half-dose unless contraindicated by patient's previous response or medical history, is also administered during the Treatment Period with psychotherapy in at least 3 blinded monthly Experimental Sessions. The Supplemental Dose extends the duration of drug effects on the participants during an Experimental Session. Methylone test groups are further subdivided into specific groups receiving only racemic methylone hydrochloride salt, S-methylone hydrochloride salt, or R-methylone hydrochloride salt. An optional Risk Evaluation and Mitigation Strategy (REMS) Protocol may be implemented for the racemic methylone, S-methylone, and placebo-groups. The Treatment Period lasts for approximately 12 weeks. During the Treatment Period, each Experimental Session is followed by three Intervening Sessions of non-drug psychotherapy. Each Experimental Session involves an overnight stay. The Primary Outcome measure, the change in Clinician Administered PTSD Scale for DSM-5 (CAPS-5), is determined by a blinded Independent Rater (IR) pool multiple times throughout the study. The study consists of separate periods for each participant. Initially, prospective participants undergo a Screening Period involving an initial eligibility assessment, a medical history intake, informed consent, and enrollment of eligible participants. Next, a Preparation Period is undertaken for enrolled participants involving medication tapering and clinical baseline assessments to confirm each participant meets enrollment criteria. As part of the Preparation Period, a detailed assessment of co-morbidities to PTSD is recorded. Participants may remain on prescribed courses of selective serotonin reuptake inhibitor (SSRI) or serotonin and norepinephrine reuptake inhibitor (SNRI) treatment. Dosages and/or frequency of administration of a prescribed SSRI or SNRI may be adjusted to fit within study parameters. Participants may be required to taper a prescribed course of medication in order to maintain eligibility within the study. The Treatment Period consists of three monthly Experimental Sessions and associated Intervening Sessions of integrative behavioral psychotherapy. The Treatment Period lasts approximately 12 weeks. Following the Treatment Period is a Follow-up Period and Study Conclusion. During the Follow-up Period and Study Conclusion, participants complete 4 weeks with no study visits, followed by a Study Conclusion visit.
This study compares the effects of three blinded Experimental Sessions of psychotherapy in combination with flexible doses of methylone or placebo administered as described below. Non-drug preparatory and intervening psychotherapy sessions are also included. Patient's weight is determined for dosage calculation. Initial dose is 100 mg unless this will result in a dosage of less than 1.5 mg/kg of patient weight. Initial dose thereby adjusted upward in 25 mg increments to deliver the lowest dose possible of at least 1.5 mg/kg of patient weight. Initial dose for Experimental Session 2 and 3 is cumulative dose calculated by adding the initial dose plus REMS protocol dose used the previous Experimental Session for each patient.
Randomization occurs prior to the initiation of Experimental Session 1. Each participant is provided the next randomized number in a sequence by a blinded study monitor. […]

[3] = 30 mg/kg ip, 30 min pretreatment, vs vehicle and chlordiazepoxide 6 mg/kg, male SD rats
[4] = specific (sufficient) doses ip, compared with chlordiazepoxide 6 mg/kg
[5] = dose response over 5, 15 and 30 mg/kg ip, male SD rats

SMILES: CN[C@@H](C)C(=O)c1ccc2c(c1)OCO2 [S-methylone]
- frequency of SAPs ([1]; 2.5 mg/kg and 5 mg/kg ip, male SD rats): dose dependent increase in SAPs
- frequency of SAPs ([1]; 7.5 mg/kg, 15 mg/kg and 30 mg/kg ip, male SD rats): dose dependent decrease in SAPS
- frequency of SAPs [1, 3]: even more effective than chlordiazepoxide at reducing SAPs
- time spent in the open arms [1, 3]: the time in the open arms increased
- anxiogenic effect ([1]; male SD rats): show anxiogenic effects at lower doses
- frequency of SAPs [1, 4]: decreased the frequency of SAPs as effectively as the benzodiazepine chlordiazepoxide
- time in the open arms [1, 4]: increase time in the open arms
- time spent in the open arms ([1]; trend over 5 mg/kg, 7.5 mg/kg and 15 mg/kg ip, male SD rats): the time spent in the open arms decreased as the dose increased
- daytime sleepiness as measured by ESS [2]: significant improvement in lessening daytime sleepiness
- clinician-rated functional impairment score as measured by SDS [2]: significant improvement
- depression as measured by HAM-D [2]: significant improvement
- change in CAPS-5 assessment [2]: significant mean reduction

SMILES: CN[C@H](C)C(=O)c1ccc2c(c1)OCO2 [R-methylone]
- frequency of SAPs [1, 3]: significantly decreasing SAPs to the same level as chlordiazepoxide
- time spent in the open arms [1, 3]: as effective as chlordiazepoxide
- anxiogenic effect ([1]; male SD rats): did not show any anxiogenic effect at any dose
- frequency of SAPs [1, 5]: dose dependent decrease in SAPs
- time spent in the open arms [1, 5]: dose dependent increase in time spent in the open arms
- frequency of SAPs [1, 4]: decreased the frequency of SAPs as effectively as the benzodiazepine chlordiazepoxide
- time in the open arms [1, 4]: increase time in the open arms
- daytime sleepiness as measured by ESS [2]: significant improvement in lessening daytime sleepiness
- clinician-rated functional impairment score as measured by SDS [2]: significant improvement
- depression as measured by HAM-D [2]: significant improvement
- change in CAPS-5 assessment [2]: significant mean reduction
